In patent US20040266862A1, “Method of improving animal tissue quality by supplementing the animal diet with mixed tocotrienols” (priority 2003, published 2004):
Marks after values point to notes of the source that are not given here.

What was measured:
Type in all cases: in vivo
swine [1] = experiment: 2002 swine feed test: 21-day raw pork loin quality measurements; parameters: key to Hunter a: Hunter a; more positive = redder; key to Hunter b: Hunter b; more positive = more yellow; Hunter a* / Hunter b*: scale not given here; conditions: for Chop purge, % / Cooking Loss, %: 21-day pork loin; for Hunter L / Hunter L* / Hunter a / Hunter a* / Hunter b / Hunter b* / Loin pH / Loin purge, %: 21-day raw pork loin; for Instron force, kg: force to pierce loin chop
Text: (§1) Applicants conducted a second swine feeding trial to further determine the effects on meat quality of supplementation of a swine diet with alpha-tocopherol (AT), gamma-tocopherol (GT) or mixed tocotrienols (MT). Seventy-two barrows (˜75 lbs.) were transported to the Pioneer Livestock Nutrition Center (PLNC) and randomly placed into individual pens with water and feed provided ad libitum. The pigs received a common diet for seven days. On the eighth day the pigs were weighed individually and a uniform group of sixty pigs with an average body weight of about 75 pounds was selected. The pigs were randomly assigned one of five dietary treatments with 12 pigs per treatment. The feeding trial was initiated on Mar. 12, 2002 and ended on Jun. 19, 2002.
(§2) The pigs were fed a corn-soybean meal diet formulated to provide adequate levels of all nutrients. In addition, one of five dietary treatments was assigned to each group: control, 300 ppm AT, 450 ppm GT, 150 ppm MT, and 300 ppm MT. To each diet a corn oil premix and a ground corn premix were added with the corn oil premix as a carrier for the supplemental tocopherols and the ground corn premix as the carrier for the MT. The MT supplement was obtained commercially from Fuji Chemical Industries (U.S.A.) Inc. of Robbinsville, N.J., and contained 7.5% alpha-, 12.3% gamma- and 3.0% delta-tocotrienol, as well as 7.2% alpha-tocopherol.
Approximately twenty-one days after slaughter the loins were removed from vacuum bags and weighed. The liquid that had accumulated in the bags during storage was measured to calculate 21-day purge. Loin pH was measured at three locations by carefully inserting a glass probe into the mid-point of the anterior, mid and posterior thirds of each loin. As expected, measurement location (blade, chop or shoulder) affected loin pH, Hunter L, L* and a* values.
The Hunter L, a and b values were measured with a Hunter laboratory system for color evaluation. Hunter L is a measurement of the lightness of an object, and may be thought of as the light reflectance from the surface of an object. Thus, a higher Hunter L value indicates a lighter color, and an L value of 100 would indicate prefect reflectance from the surface. (The white standard has an L value of 97.21.) An increasingly positive Hunter a value indicates a redder color, and an increasingly positive Hunter b value indicates a more yellow color.

swine [2] = experiment: 2002 swine feed test: 24 hour raw pork loin quality; parameters: Marbling / Fat Firmness / Color Score: scale not given here
Text: as §1, §2
The pigs were harvested in June 2002 when they had reached an average weight of about 245 pounds. Following a twelve-hour feed withdrawal, the pigs were transported to a commercial processing facility. At the commercial processing facility, individual hot carcass weight, back fat depth and loin depth were measured and recorded on the day of slaughter. Loin pH, loin color value (Minolta L*), Marbling and fat firmness were recorded 24 hours post mortem.

swine [3] = experiment: as above
chickens = experiment: 2002 poultry feed test: TBARS content of cooked ground chicken thighs; conditions: 300 ppm in diet
Text: Applicants also assessed the effects of antioxidant supplementation on meat quality in an experiment in which meat from chickens fed one of four dietary treatments was compared. On Jul. 25, 2002, day-old chicks were obtained from a commercial company. The birds were housed in a brooder until Aug. 11, 2002. On Aug. 11, forty-eight birds were randomly allocated to one of four pens (twelve birds per pen). Birds in each pen were offered ad libitum access to one of four treatment diets: control, 300 ppm AT, 300 ppm GT or 150 ppm MT. The MT premix contained a commercially available MT supplement (7.5% alpha-, 12.3% gamma- and 3.0% delta-tocotrienol and 7.2% alpha-tocopherol) mixed with ground corn as the carrier. The total MT premix (ground corn plus MT supplement) represented 2.5% w/w of the finished MT supplemented feed.
On Sep. 13, 2002 (seven weeks of age) the birds were harvested, identified and frozen at −20C. The birds were stored frozen at −20C for 136-159 days post slaughter. On days 136, 156, 157, 158 and 159 (where available) two birds per dietary treatment were thawed in cold water. Meat was removed from the breasts (pectoralis major muscles) and thighs. Breast meat from each chicken was ground through a 3 mm disc in a Krups Butcher Shop 150W Professional Power Meat Grinder. Thigh meat from two chickens was combined (for days 156, 157, 158 and 159; day 136 thigh meat was kept separate for each bird) and ground in a similar manner. Patties were made (10 g for breast; 60 g for thighs) using a 100×15 mm Petri dish as a mold.
Raw ground chicken breast and thigh patties were cooked in a pre-warmed George Foreman grill for five minutes per breast patty and four minutes per thigh patty. Cooked patties were allowed to cool under refrigeration and then quartered (day 136) or halved (days 156, 157, 158 and 159). Each quarter or half was stored at 2.2C in zip lock baggies for a designated period of time. One quarter was used per sampling period. Sampling periods were 0 hours, 4 hours, 26 hours and 48 hours. Thiobarbituric acid reacting substances (TBARS) analyses was performed according to Ahn et al., and the results are shown in the following two tables.

Cc1c(O)cc2c(c1C)O[C@](C)(CCC[C@H](C)CCC[C@H](C)CCCC(C)C)CC2 [GT, gamma-tocopherol]
Chop purge, % (swine [1]; 450 ppm in diet): 2.40% | Cooking Loss, % (swine [1]; 450 ppm in diet): 20.27% | Hunter L (swine [1]; 450 ppm in diet): 45.47 | Hunter L* (swine [1]; 450 ppm in diet): 52.53 | Hunter a (swine [1]; 450 ppm in diet): 6.00 | Hunter a* (swine [1]; 450 ppm in diet): 7.14 | Hunter b (swine [1]; 450 ppm in diet): 8.41 | Hunter b* (swine [1]; 450 ppm in diet): 15.61 | Loin pH (swine [1]; 450 ppm in diet): 5.67 | Loin purge, % (swine [1]; 450 ppm in diet): 1.16% | Instron force, kg (swine [1]; 450 ppm in diet): 5.53^a kg | Color Score (swine [2]; 450 ppm in diet): 3.1 | Fat Firmness (swine [2]; 450 ppm in diet): 2.0 | Hunter L* (swine [2]; 450 ppm in diet): 48.81 | Marbling (swine [2]; 450 ppm in diet): 1.9 | PH, hour 22 (swine [3]; 450 ppm in diet): 5.76 | TBARS content (chickens; 0 hours at 2.2C): 0.4839^b mg Malonaldehyde/kg sample | TBARS content (chickens; 4 hours at 2.2C): 0.6715^d mg Malonaldehyde/kg sample | TBARS content (chickens; 26 hours at 2.2C): 1.2515^d mg Malonaldehyde/kg sample | TBARS content (chickens; 48 hours at 2.2C): 1.6312^d mg Malonaldehyde/kg sample

Cc1c(C)c2c(c(C)c1O)CC[C@@](C)(CCC[C@H](C)CCC[C@H](C)CCCC(C)C)O2 [AT, alpha-tocopherol]
Chop purge, % (swine [1]; 300 ppm in diet): 1.97% | Cooking Loss, % (swine [1]; 300 ppm in diet): 20.11% | Hunter L (swine [1]; 300 ppm in diet): 46.68 | Hunter L* (swine [1]; 300 ppm in diet): 53.86 | Hunter a (swine [1]; 300 ppm in diet): 5.71 | Hunter a* (swine [1]; 300 ppm in diet): 6.76 | Hunter b (swine [1]; 300 ppm in diet): 8.60 | Hunter b* (swine [1]; 300 ppm in diet): 15.77 | Loin pH (swine [1]; 300 ppm in diet): 5.66 | Loin purge, % (swine [1]; 300 ppm in diet): 0.99% | Instron force, kg (swine [1]; 300 ppm in diet): 4.98^b kg | Color Score (swine [2]; 300 ppm in diet): 3.2 | Fat Firmness (swine [2]; 300 ppm in diet): 2.3 | Hunter L* (swine [2]; 300 ppm in diet): 48.89 | Marbling (swine [2]; 300 ppm in diet): 2.1 | PH, hour 22 (swine [3]; 300 ppm in diet): 5.86 | TBARS content (chickens; 0 hours at 2.2C): 0.4568^b mg Malonaldehyde/kg sample | TBARS content (chickens; 4 hours at 2.2C): 0.8954^d mg Malonaldehyde/kg sample | TBARS content (chickens; 26 hours at 2.2C): 0.8968^d mg Malonaldehyde/kg sample | TBARS content (chickens; 48 hours at 2.2C): 1.1669^d mg Malonaldehyde/kg sample
